Source: patent US20250163104A1, “MACROCYCLIC IMMUNOMODULATORS” (priority 2021, published 2025)
*1 amine or outer side, *2 acyl side, *3 side chain or, on linkers, in order; H or OH if unused. Where a SMILES comes first, the peptide text is derived from it. Bridges are numbered along the chain shown (N, C = ends). [ ]: non-standard residue; d: D form. The star is where a group is joined. Ala(6-(2-MePh)pyridin-3-yl) = Cc1ccccc1-c1ccc(C[C@H](N)C(=O)O)cn1; X8 = O=C([C@H](Cc1ccc2ccncc2c1)N[*:1])[*:2]; Bip = N[C@@H](Cc1ccc(-c2ccccc2)cc1)C(=O)O; 2Nal = N[C@@H](Cc1ccc2ccccc2c1)C(=O)O; Gla = N[C@@H](CC(C(=O)O)C(=O)O)C(=O)O; αMeF = C[C@](N)(Cc1ccccc1)C(=O)O; αMeE = C[C@](N)(CCC(=O)O)C(=O)O; Cha = N[C@@H](CC1CCCCC1)C(=O)O; Cit = NC(=O)NCCC[C@H](N)C(=O)O; hSer = N[C@@H](CCO)C(=O)O; Carboxymethyl = O=C(O)C*; Orn = NCCC[C@H](N)C(=O)O; Dab = NCC[C@H](N)C(=O)O; Dap = NC[C@H](N)C(=O)O

The compounds below were run against T1, human PD-1 / PD-L1-Ig binding on Jurkat cell line over-expressing human PD-1 (Jurkat-PD-1) (Homo sapiens, UniProt Q15116) (assay: Jurkat-PD-1 Cell Binding High-Content Screening Assay (CBA)). Details: Jurkat-PD-1 cells, PE-labeled PD-L1-Ig 20 nM final; read-out: Jurkat HPD1_PDL1 IC50.
T1 construct: expressed in transfected cells; host or cells: Jurkat
T1 sequence (Q15116 25-288): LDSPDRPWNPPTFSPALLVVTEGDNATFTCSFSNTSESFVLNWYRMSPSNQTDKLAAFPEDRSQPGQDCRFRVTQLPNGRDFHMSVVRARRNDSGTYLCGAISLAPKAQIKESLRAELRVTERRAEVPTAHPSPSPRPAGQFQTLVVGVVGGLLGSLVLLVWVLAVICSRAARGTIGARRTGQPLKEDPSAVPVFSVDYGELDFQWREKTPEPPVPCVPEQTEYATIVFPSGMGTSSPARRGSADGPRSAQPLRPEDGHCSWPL
Type: cell-based
Summary of the method: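 Compounds were preincubated with Jurkat-hPD-1 cells in DMEM plus 10% fetal calf serum for 2 h at 37° C. Phycoerythrin-labeled PD-L1-Ig (20 nM final) was then added for 1 hour. Cells were fixed in 4% paraformaldehyde with Hoechst 33342, and bound fluorescence was quantified by high-content imaging.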

Structure (SMILES) | IC50 [nM]
COCC[C@@H]1NC(=O)[C@H](CN)NC(=O)CSC[C@@H](C(=O)N[C@@H](C)C(N)=O)NC(=O)[C@H]([C@@H](C)O)NC(=O)[C@H](C(C)C)NC(=O)[C@H](CC2CCCCC2)NC(=O)[C@H](CCN)NC(=O)[C@@H](CC(C)C)NC(=O)[C@H](CCCN)NC(=O)[C@H](CCCNC(N)=O)NC(=O)[C@H](Cc2ccc(-c3ccccc3)cc2)NC(=O)[C@H](C(C)C)NC(=O)[C@H](Cc2c[nH]c3ccccc23)NC(=O)[C@H](CC(=O)O)NC1=O [Compound 2133] ({CH2CO}-[Dap][hSer](Me)DWV[Bip][Cit][Orn][dL][Dab][Cha]VTCA-NH2; thioether N-14) | 24.6
CC(C)C[C@H]1NC(=O)[C@H](CCCN)NC(=O)[C@H](CCCNC(N)=O)NC(=O)[C@H](Cc2ccc(-c3ccccc3)cc2)NC(=O)[C@H](C(C)C)NC(=O)[C@H](Cc2c[nH]c3ccccc23)NC(=O)[C@H](CC(=O)O)NC(=O)[C@H](CC(C(=O)O)C(=O)O)NC(=O)[C@H](CN)NC(=O)CSC[C@@H](C(=O)N[C@@H](C)C(N)=O)NC(=O)[C@H]([C@@H](C)O)NC(=O)[C@H](C(C)C)NC(=O)[C@H](CC2CCCCC2)NC(=O)[C@H](CCN)NC1=O [Compound 2134] ({CH2CO}-[Dap][Gla]DWV[Bip][Cit][Orn][dL][Dab][Cha]VTCA-NH2; thioether N-14) | 365
Cc1ccccc1-c1ccc(C[C@@H]2NC(=O)[C@H](CN)NC(=O)CSC[C@@H](C(=O)N[C@@H](C)C(N)=O)NC(=O)[C@H]([C@@H](C)O)NC(=O)[C@H](C(C)C)NC(=O)[C@H](CC3CCCCC3)NC(=O)[C@H](CCN)NC(=O)[C@@H](CC(C)C)NC(=O)[C@H](CCCN)NC(=O)[C@H](CCCNC(N)=O)NC(=O)[C@H](Cc3ccc(-c4ccccc4)cc3)NC(=O)[C@H](C(C)C)NC(=O)[C@H](Cc3c[nH]c4ccccc34)NC(=O)[C@H](CC(=O)O)NC2=O)cn1 [Compound 2135] ({CH2CO}-[Dap][Ala(6-(2-MePh)pyridin-3-yl)]DWV[Bip][Cit][Orn][dL][Dab][Cha]VTCA-NH2; thioether N-14) | 131
CC(C)C[C@H]1NC(=O)[C@H](CCCN)NC(=O)[C@H](CCCNC(N)=O)NC(=O)[C@H](Cc2ccc(-c3ccccc3)cc2)NC(=O)[C@H](C(C)C)NC(=O)[C@H](Cc2c[nH]c3ccccc23)NC(=O)[C@H](CC(=O)O)NC(=O)[C@](C)(CCC(=O)O)NC(=O)[C@H](CN)NC(=O)CSC[C@@H](C(=O)N[C@@H](C)C(N)=O)NC(=O)[C@H]([C@@H](C)O)NC(=O)[C@H](C(C)C)NC(=O)[C@H](CC2CCCCC2)NC(=O)[C@H](CCN)NC1=O [Compound 2136] ({CH2CO}-[Dap][αMeE]DWV[Bip][Cit][Orn][dL][Dab][Cha]VTCA-NH2; thioether N-14) | 814
CC(C)C[C@H]1NC(=O)[C@H](CCCN)NC(=O)[C@H](CCCNC(N)=O)NC(=O)[C@H](Cc2ccc(-c3ccccc3)cc2)NC(=O)[C@H](C(C)C)NC(=O)[C@H](Cc2c[nH]c3ccccc23)NC(=O)[C@H](CC(=O)O)NC(=O)[C@](C)(Cc2ccccc2)NC(=O)[C@H](CN)NC(=O)CSC[C@@H](C(=O)N[C@@H](C)C(N)=O)NC(=O)[C@H]([C@@H](C)O)NC(=O)[C@H](C(C)C)NC(=O)[C@H](CC2CCCCC2)NC(=O)[C@H](CCN)NC1=O [Compound 2137] ({CH2CO}-[Dap][αMeF]DWV[Bip][Cit][Orn][dL][Dab][Cha]VTCA-NH2; thioether N-14) | 11.4
Cc1ccc(C[C@@H]2NC(=O)[C@H](CC(=O)O)NC(=O)[C@H](Cc3ccc(OCC(=O)O)cc3)NC(=O)[C@H](CN)NC(=O)CSC[C@@H](C(=O)N[C@@H](C)C(N)=O)NC(=O)[C@H]([C@@H](C)O)NC(=O)[C@H](C(C)C)NC(=O)[C@H](CC3CCCCC3)NC(=O)[C@H](CCN)NC(=O)[C@@H](CC(C)C)NC(=O)[C@H](CCCN)NC(=O)[C@H](CCC(=O)O)NC(=O)[C@H](Cc3ccc(-c4ccccc4)cc3)NC(=O)[C@H](C(C)C)NC2=O)cc1 [Compound 2139] | 71.6
COc1ccc(C[C@@H]2NC(=O)[C@H](CC(=O)O)NC(=O)[C@H](Cc3ccc(OCC(=O)O)cc3)NC(=O)[C@H](CN)NC(=O)CSC[C@@H](C(=O)N[C@@H](C)C(N)=O)NC(=O)[C@H]([C@@H](C)O)NC(=O)[C@H](C(C)C)NC(=O)[C@H](CC3CCCCC3)NC(=O)[C@H](CCN)NC(=O)[C@@H](CC(C)C)NC(=O)[C@H](CCCN)NC(=O)[C@H](CCC(=O)O)NC(=O)[C@H](Cc3ccc(-c4ccccc4)cc3)NC(=O)[C@H](C(C)C)NC2=O)cc1 [Compound 2140] ({CH2CO}-[Dap]Y(Carboxymethyl)DY(Me)V[Bip]E[Orn][dL][Dab][Cha]VTCA-NH2; thioether N-14) | 478
CC(C)C[C@H]1NC(=O)[C@H](CCCN)NC(=O)[C@H](CCC(=O)O)NC(=O)[C@H](Cc2ccc(-c3ccccc3)cc2)NC(=O)[C@H](C(C)C)NC(=O)[C@H](Cc2ccc(O)cc2)NC(=O)[C@H](CC(=O)O)NC(=O)[C@H](Cc2ccc(OCC(=O)O)cc2)NC(=O)[C@H](CN)NC(=O)CSC[C@@H](C(=O)N[C@@H](C)C(N)=O)NC(=O)[C@H]([C@@H](C)O)NC(=O)[C@H](C(C)C)NC(=O)[C@H](CC2CCCCC2)NC(=O)[C@H](CCN)NC1=O [Compound 2141] ({CH2CO}-[Dap]Y(Carboxymethyl)DYV[Bip]E[Orn][dL][Dab][Cha]VTCA-NH2; thioether N-14) | 26.1
CC(C)C[C@H]1NC(=O)[C@H](CCCN)NC(=O)[C@H](CCC(=O)O)NC(=O)[C@H](Cc2ccc(-c3ccccc3)cc2)NC(=O)[C@H](C(C)C)NC(=O)[C@H](Cc2ccc3ccccc3c2)NC(=O)[C@H](CC(=O)O)NC(=O)[C@H](Cc2ccc(OCC(=O)O)cc2)NC(=O)[C@H](CN)NC(=O)CSC[C@@H](C(=O)N[C@@H](C)C(N)=O)NC(=O)[C@H]([C@@H](C)O)NC(=O)[C@H](C(C)C)NC(=O)[C@H](CC2CCCCC2)NC(=O)[C@H](CCN)NC1=O [Compound 2142] ({CH2CO}-[Dap]Y(Carboxymethyl)D[2Nal]V[Bip]E[Orn][dL][Dab][Cha]VTCA-NH2; thioether N-14) | 543
CC(C)C[C@H]1NC(=O)[C@H](CCCN)NC(=O)[C@H](CCC(=O)O)NC(=O)[C@H](Cc2ccc(-c3ccccc3)cc2)NC(=O)[C@H](C(C)C)NC(=O)[C@H](Cc2c[nH]c3ccc(C#N)cc23)NC(=O)[C@H](CC(=O)O)NC(=O)[C@H](Cc2ccc(OCC(=O)O)cc2)NC(=O)[C@H](CN)NC(=O)CSC[C@@H](C(=O)N[C@@H](C)C(N)=O)NC(=O)[C@H]([C@@H](C)O)NC(=O)[C@H](C(C)C)NC(=O)[C@H](CC2CCCCC2)NC(=O)[C@H](CCN)NC1=O [Compound 2143] | 139
CC(C)C[C@H]1NC(=O)[C@H](CCCN)NC(=O)[C@H](CCC(=O)O)NC(=O)[C@H](Cc2ccc(-c3ccccc3)cc2)NC(=O)[C@H](C(C)C)NC(=O)[C@H](Cc2ccc3ccncc3c2)NC(=O)[C@H](CC(=O)O)NC(=O)[C@H](Cc2ccc(OCC(=O)O)cc2)NC(=O)[C@H](CN)NC(=O)CSC[C@@H](C(=O)N[C@@H](C)C(N)=O)NC(=O)[C@H]([C@@H](C)O)NC(=O)[C@H](C(C)C)NC(=O)[C@H](CC2CCCCC2)NC(=O)[C@H](CCN)NC1=O [Compound 2144] ({CH2CO}-[Dap]Y(Carboxymethyl)D[X8]V[Bip]E[Orn][dL][Dab][Cha]VTCA-NH2; thioether N-14) | 785
